Data from patent US6737421B1, “Cyclo-alkyl substituted benzimidazoles and their use as PARP inhibitors” (Abbott GmbH & Co. KG, priority 1999, dated 2004).

Key:
[1] = Determination of the solubility in water; format: physicochemical; details: adjusted to pH 5-6 with sodium acetate solution, final dimethyl sulfoxide ≦1% if not a water-soluble salt
Description: EXAMPLE B Determination of the Solubility in Water […] If the measured substance is not in the form of a water-soluble salt, it was dissolved in the minimum amount of dimethyl sulfoxide and then diluted with water (final dimethyl sulfoxide concentration ≦1%), after which the pH was again adjusted.

[2] = literature report; cited from earlier work

Compound | solubility in water [1] [%] | effect in a model of circulatory failure [2]
COc1ccc(-c2nc3cccc(C(N)=O)c3[nH]2)cc1 [NU 1076] | < 0.01 | –
NC(=O)c1cccc(N)c1 [3-aminobenzamide] | – | protective effects
